Source: the NIST ThermoML archive (doi:10.1021/acs.jced.8b00723)
± gives the expanded uncertainty stated by the source.

Assay: an = ratio of the nth substance listed
Details: 308.15 K, 100 kPa, Liquid; for speed of sound: Single path-length method; for mass density: Vibrating tube method

speed of sound (a1 = 0.05)	speed of sound (a1 = 0.1)	speed of sound (a1 = 0.15)	mass density (a1 = 0.05)	mass density (a1 = 0.1)	mass density (a1 = 0.15)	speed of sound (a1 = 0.075)	mass density (a1 = 0.075)	Structure (SMILES)
1542.9 ± 0.6 m/s	1559.2 ± 0.6 m/s	1590.4 ± 0.6 m/s	990.6 ± 10 kg/m3	982.8 ± 10 kg/m3	971.7 ± 10 kg/m3			CCO [ethanol] + O
1533.2 ± 0.5 m/s	1543.5 ± 0.5 m/s	1566.7 ± 0.5 m/s	988.6 ± 10 kg/m3	980.6 ± 10 kg/m3	971 ± 10 kg/m3			CO [methanol] + O
1551.7 ± 0.6 m/s	1569.7 ± 0.6 m/s		993.1 ± 10 kg/m3	987.6 ± 10 kg/m3		1566.2 ± 0.6 m/s	991.8 ± 10 kg/m3	CC(C)O [propan-2-ol] + O
